Test results from patent US20140288056A1, “METHODS FOR NON-TOXIC TREATMENT FOR DRUG WITHDRAWAL” (DEMERX, INC., priority 2013, published 2014).

What was measured:
Sprague-Dawley rat = experiment: Single dose toxicity in rats, oral gavage; assay type: in vivo
Description: The objective of this study was to determine the toxicity and toxicokinetic profile of noribogaine HCl following a single oral (gavage) administration in the Sprague-Dawley rat. A single dose of 100, 300 and 800 mg/kg (achieved with doses of 400 mg/kg 3 h +/−30 min apart because of the limitations of maximum dose formulation concentration). Five male rats/group were used. […] Hypoactivity, vocalization, chewing movements, changes in respiration/posture, salivation, stimuli sensitivity, tremors, twitches and penile erection occurred prior to death. […] The NOAEL was determined to be 100 mg/kg.

Sprague-Dawley rats = experiment: Fourteen day repeat dose toxicity in rats, oral gavage; assay type: in vivo, rat
Description: This study was conducted to evaluate the toxicity profile of noribogaine-HCl following oral (gavage) administration to the rat for 14 days following Table 2 below:
Male and female Sprague-Dawley rats, 10/sex/group, were administered 0, 25, 50 or 100 mg/kg noribogaine HCl daily by single oral gavage for 14 days. An additional 5 rats/sex/group in the 0 (control) and 100 mg/kg groups were retained for a 28 day recovery period during which no drug was administered. Six rats/sex/group (3 rats/sex controls) were similarly dosed and sampled on study days 1 and 14 for analysis of noribogaine-HCl concentrations in the blood.

dogs [1] = experiment: Fourteen day repeat dose toxicity in dogs, oral gavage; assay type: in vivo, dog
Description: The objective of this study was to determine the toxicity profile of noribogaine HCl given following oral (gavage) administration to dogs for 14 days according to the following Table 3 below:
(§1) Noribogaine HCl was administered to groups of 4 male and 4 female dogs by single oral gavage daily for 14 days at doses of 0, 0.5, 1.0 and 5.0 mg/kg/day. An additional group of 4 male and 4 female dogs received either the vehicle control or 5.0 mg/kg/day for 14 days and were held for an additional 28 days after cessation of dosing to assess recovery from any potential drug-induced changes. The study was conducted under GLP guidelines and included comprehensive examinations of clinical signs, body weight, clinical pathology parameters, ophthalmologic examinations, ECG recordings and analyses of plasma for bioanalytical measurement of drug levels at appropriate intervals during the study. At the termination of the dosing phase and at the termination of the recovery phase, all dogs were subjected to a complete post-mortem examination including gross examination of major organs and histologic examination of an extensive list of tissues. Additional sections of brain were obtained from cerebrum, cerebellus, brain stem and spinal cord and examined histologically to evaluate potential effects on brain histopathology. In addition, these sections were examined with immunohistochemical stains for GFAP for evidence of gliosis and Calbindin for a more comprehensive examination of cerebellar Purkinje cells.
The only target tissue identified in this study was the lacrimal gland of dogs receiving 5 mg/kg/day. […] There was an associated mononuclear infiltration in the draining mandibular lymph nodes of affected dogs in this dose group. […] There was no clear evidence of local irritation associated with drug treatment in these high dose dogs. […] While slight atrophy was still evident in the acinar cells of the gland after 28 days off drug, no evidence of continuing and ongoing degeneration or cellular infiltration was observed. The NOAEL in this study was 1 mg/kg/day based on the lacrimal gland changes at 5 mg/kg/day.

[2] = Plasma toxicokinetics in dogs, 14 day repeat dose study; assay type: in vivo, dog
Description: as §1

[3] = Human pharmacokinetic study, single oral dose, fasting healthy volunteers; assay type: in vivo; conditions: for mean AUC/24 hr / mean Cmax / mean AUC/24: fasting, serum
Description: In double blind studies, fasting healthy volunteers (6 per cohort) were treated once orally with a tablet of noribogaine HCl. In escalating cohorts, the volunteers received 3 mg, 10 mg, 30 mg or 60 mg noribogaine.

dogs [4] = experiment: Acute oral toxicity/TK study in dogs; assay type: in vivo, dog
cynomolgus monkey = experiment: Single dose toxicity in cynomolgus monkeys, oral gavage; assay type: in vivo
Description: The objective of the study was to determine the toxicity and toxicokinetic profile of noribogaine following oral (gavage) administration to the cynomolgus monkey. The test article was administered as follows in Table 1:
Parameters monitored on the study included: mortality, clinical signs and body weights. Blood samples were collected for TK evaluation. […] The single dose maximum tolerated dose (MTD) was determined to be greater than 160 mg/kg based on the parameters monitored during the study.

drug-seeking behavior = experiment: Animal studies in various addiction models; assay type: in vivo
psychotomimetic effects = experiment: Evaluation of psychotomimetic effects in an animal model; assay type: in vivo
various animal species = experiment: Pre-clinical toxicity studies in various animal species; assay type: in vivo
Text: Given the signs of efficacy that noribogaine has shown, there is a need for a method to administer noribogaine in dosages that provide efficacy without leading to any significant deleterious clinical signs.

[5] = female dogs, Gr 2 0.5 mg/kg, D 1
[6] = female dogs, Gr 2 0.5 mg/kg, D 14
[7] = female dogs, Gr 3 1.0 mg/kg, D 1
[8] = female dogs, Gr 3 1.0 mg/kg, D 14
[9] = female dogs, Gr 4 5.0 mg/kg, D 1
[10] = female dogs, Gr 4 5.0 mg/kg, D 14
[11] = male dogs, Gr 2 0.5 mg/kg, D 14
[12] = male dogs, Gr 3 1.0 mg/kg, D 14
[13] = male dogs, Gr 4 5.0 mg/kg, D 14

CC[C@@H]1C[C@H]2CC3c4[nH]c5ccc(O)cc5c4CCN(C2)C31.Cl [noribogaine HCl]
Treatment related signs (Sprague-Dawley rat; 100 mg/kg): did not show any treatment related signs
Rats with hypoactivity, vocalization, salivation, stimuli sensitivity, loss of limb function and lying on the cage floor (Sprague-Dawley rat; 300 mg/kg, day of treatment, persisted until Day 2): 3/5
Mortality (Sprague-Dawley rat; 800 mg/kg (two doses of 400 mg/kg 3 h apart), single oral gavage, male rats): Mortality occurred in all male rats
Time of mortality after administration of the second dose (Sprague-Dawley rat; 800 mg/kg group, after second dose of 400 mg/kg): 2 to 3 h
NOAEL (Sprague-Dawley rat; single oral dose, male rats): 100 mg/kg
Body weight change (Sprague-Dawley rats; 100 mg/kg high dose, females): −2.6%
Body weight change (Sprague-Dawley rats; 100 mg/kg high dose, males): −5.5%
Food consumption change (Sprague-Dawley rats; 100 mg/kg high dose, males and females): −4.7%
Test article-related effects on mortality, clinical signs, ophthalmoscopy, hematology, coagulation parameters, clinical chemistry, urinalysis, gross necropsy or histopathology (Sprague-Dawley rats; 25, 50 or 100 mg/kg daily for 14 days): no test article-related effects
Differences in the brain in sections stained for GFAP or Calbindin (Sprague-Dawley rats; 14 days oral): No treatment-related differences
NOAEL (Sprague-Dawley rats; 14 days oral, highest dose tested): 100 mg/kg
Liver weight (Sprague-Dawley rats; mid- and high dose groups (50 and 100 mg/kg), considered incidental): Minor increases
Lacrimal gland changes (dogs [1]; 5 mg/kg/day for 14 days): slight to moderate atrophy and degeneration of the acinar cells
Lacrimal gland change in recovery group (dogs [1]; 5 mg/kg/day, 28 days off drug): clear evidence of regeneration
Adverse effect in clinical observations, body weights, clinical pathological parameters, ophthalmologic examinations, ECG recordings, or gross lesions at necropsy (dogs [1]; 0.5, 1.0 and 5.0 mg/kg/day for 14 days, dosing or recovery phase): No evidence of adverse effect
Drug-induced effect in any other tissue including brain (histopathology, immunohistochemistry) (dogs [1]; 14 days oral): No evidence of drug-induced effect
NOAEL (dogs [1]; 14 days oral, based on lacrimal gland changes at 5 mg/kg/day): 1 mg/kg/day
Plasma level at 24 h post-dosing ([2]; Group 4 (5.0 mg/kg), male and female dogs, Days 1 and 14): significant levels of noribogaine were still detected
Adverse effects ([3]; 3, 10, 30 or 60 mg single oral tablet): no clinically relevant adverse effects were observed
Dose linearity of parameters ([3]; 3 to 60 mg single oral dose): linear

CC[C@H]1C[C@H]2C[C@H]3c4[nH]c5ccc(O)cc5c4CCN(C2)[C@@H]13 [noribogaine]
Findings at the NOAEL dose (dogs [4]; 5 mg/kg oral): only transient reduction in food consumption in one dog
Convulsions and other CNS-related clinical signs (dogs [4]; 10 mg/kg oral): occurred
Onset of convulsions and CNS-related clinical signs after dosing (dogs [4]; 10 mg/kg oral): 20 min
Mortality (dogs [4]; 5 (n=2) or 10 (n=2) mg/kg oral): no mortality occurred
NOAEL (dogs [4]; single oral dose): 5 mg/kg
Single dose maximum tolerated dose (MTD) (cynomolgus monkey): greater than 160 mg/kg
Mortality or treatment related clinical signs (cynomolgus monkey; doses up to and including 160 mg/kg): No mortality or treatment related clinical signs were noted
AUC0-24 h [2, 5]: 40.4 ng·h/mL
AUC0-last [2, 5]: 31.5 ng·h/mL
AUC0-∞ [2, 5]: 44.9 ng·h/mL
Cmax [2, 5]: 25.3 ng/mL
T1/2 [2, 5]: 1.0 h
Tmax [2, 5]: 0.5 h
AUC0-24 h [2, 6]: 55.0 ng·h/mL
AUC0-last [2, 6]: 35.4 ng·h/mL
AUC0-∞ [2, 6]: 45.7 ng·h/mL
Cmax [2, 6]: 29.8 ng/mL
T1/2 [2, 6]: 1.1 h
Tmax [2, 6]: 1.0 h
AUC0-24 h [2, 7]: 176.2 ng·h/mL
AUC0-last [2, 7]: 148.9 ng·h/mL
AUC0-∞ [2, 7]: 165.3 ng·h/mL
Cmax [2, 7]: 68.5 ng/mL
T1/2 [2, 7]: 1.4 h
Tmax [2, 7]: 0.8 h
AUC0-24 h [2, 8]: 203.7 ng·h/mL
AUC0-last [2, 8]: 169.0 ng·h/mL
AUC0-∞ [2, 8]: 197.0 ng·h/mL
Cmax [2, 8]: 74.1 ng/mL
T1/2 [2, 8]: 1.6 h
Tmax [2, 8]: 0.5 h
AUC0-24 h [2, 9]: 3367.9 ng·h/mL
AUC0-last [2, 9]: 3367.9 ng·h/mL
AUC0-∞ [2, 9]: 3425.7 ng·h/mL
Cmax [2, 9]: 691 ng/mL
T1/2 [2, 9]: 4.3 h
Tmax [2, 9]: 0.6 h
AUC0-24 h [2, 10]: 5951.2 ng·h/mL
AUC0-last [2, 10]: 5951.2 ng·h/mL
AUC0-∞ [2, 10]: 6283.2 ng·h/mL
Cmax [2, 10]: 683 ng/mL
T1/2 [2, 10]: 5.7 h
Tmax [2, 10]: 0.6 h
AUC0-24 h ([2]; male dogs, Gr 2 0.5 mg/kg, D 1): 59.7 ng·h/mL
AUC0-last ([2]; male dogs, Gr 2 0.5 mg/kg, D 1): 46.6 ng·h/mL
AUC0-∞ ([2]; male dogs, Gr 2 0.5 mg/kg, D 1): 67.8 ng·h/mL
Cmax ([2]; male dogs, Gr 2 0.5 mg/kg, D 1): 28.8 ng/mL
T1/2 ([2]; male dogs, Gr 2 0.5 mg/kg, D 1): 1.3 h
Tmax ([2]; male dogs, Gr 2 0.5 mg/kg, D 1): 0.7 h
AUC0-24 h [2, 11]: 64.5 ng·h/mL
AUC0-last [2, 11]: 53.2 ng·h/mL
AUC0-∞ [2, 11]: 68.2 ng·h/mL
Cmax [2, 11]: 29.4 ng/mL
T1/2 [2, 11]: 1.3 h
Tmax [2, 11]: 0.7 h
AUC0-24 h ([2]; male dogs, Gr 3 1.0 mg/kg, D 1): 119.8 ng·h/mL
AUC0-last ([2]; male dogs, Gr 3 1.0 mg/kg, D 1): 102.5 ng·h/mL
AUC0-∞ ([2]; male dogs, Gr 3 1.0 mg/kg, D 1): 120.8 ng·h/mL
Cmax ([2]; male dogs, Gr 3 1.0 mg/kg, D 1): 58.6 ng/mL
T1/2 ([2]; male dogs, Gr 3 1.0 mg/kg, D 1): 1.2 h
Tmax ([2]; male dogs, Gr 3 1.0 mg/kg, D 1): 0.9 h
AUC0-24 h [2, 12]: 210.4 ng·h/mL
AUC0-last [2, 12]: 172.3 ng·h/mL
AUC0-∞ [2, 12]: 195.7 ng·h/mL
Cmax [2, 12]: 67.6 ng/mL
T1/2 [2, 12]: 1.8 h
Tmax [2, 12]: 0.8 h
AUC0-24 h ([2]; male dogs, Gr 4 5.0 mg/kg, D 1): 3515.0 ng·h/mL
AUC0-last ([2]; male dogs, Gr 4 5.0 mg/kg, D 1): 3515.0 ng·h/mL
AUC0-∞ ([2]; male dogs, Gr 4 5.0 mg/kg, D 1): 3630.5 ng·h/mL
Cmax ([2]; male dogs, Gr 4 5.0 mg/kg, D 1): 693 ng/mL
T1/2 ([2]; male dogs, Gr 4 5.0 mg/kg, D 1): 4.7 h
Tmax ([2]; male dogs, Gr 4 5.0 mg/kg, D 1): 0.6 h
AUC0-24 h [2, 13]: 6403.3 ng·h/mL
AUC0-last [2, 13]: 6403.3 ng·h/mL
AUC0-∞ [2, 13]: 6961.4 ng·h/mL
Cmax [2, 13]: 716 ng/mL
T1/2 [2, 13]: 6.5 h
Tmax [2, 13]: 0.9 h
mean AUC/24 hr ([3]; single dose 3 mg): 3.1 ng/mL
mean Cmax ([3]; single dose 3 mg): 5.2 ng/mL
mean AUC/24 hr ([3]; single dose 10 mg): 10.6 ng/mL
mean Cmax ([3]; single dose 10 mg): 14.5 ng/mL
mean AUC/24 ([3]; single dose 30 mg): 29.2 ng/mL
mean Cmax ([3]; single dose 30 mg): 55.9 ng/mL
mean AUC/24 ([3]; single dose 60 mg): 61 ng/mL
mean Cmax ([3]; single dose 60 mg): 116 ng/mL
Drug-seeking behavior (drug-seeking behavior): significantly reduced
Psychotomimetic effects (psychotomimetic effects): no activity
Toxic effects of high doses (various animal species): convulsions and other CNS-related clinical signs, respiratory arrest and death
